In general, ED50 refers to the dose that gives a 50% effect, or the effect in half of the subjects.

Molecules are shown by their SMILES. Where two headings read alike, the source gives them in different places.

This note sets out measurements from patent US4564609A, “4-Substituted-2-azetidinone compound, process of producing the compounds, and medicaments containing the compounds” (Yamanouchi Pharmaceutical Co., Ltd., priority 1983, dated 1986).

Series [1] deals with male mice. Kind of series: Pentobarbital-induced hypothermia (Experiment 1). The class given is in vivo. Conditions: i.v. 10 min after pentobarbital 55 mg/kg i.p.; rectal temperature 30 min after test compound; dose reducing hypothermia of control group by 1.5° C. On the procedure: Pentobarbital-induced hypothermia:
Nine male mice weighing 18 to 22 g were used for each dosage of the test compounds. Mice were given i.v. various doses of TRH or tested compounds 10 min. after pentobarbital (55 mg/kg i.p.). Rectal temperature was measured before pentobarbital dosing and immediately before and 30 min. after the test compounds. Effects of test compounds were evaluated as ED1.5° C., the dose required to reduce by 1.5° C. pentobarbital-hypothermia of control group of mice which received only pentobarbital and saline.

Series [2] concerns male mice. The series is described as follows: Disturbance of consciousness induced by concussive head injury (Experiment 2). The series is classed as in vivo. The following applies: i.v. 10 min before concussive head injury, dose shortening spontaneous movement time of control group by 50%; for ED50: Mus musculus, iv, read-out: Onset time of spontaneous movement ED50%. On the procedure: Disturbance of consciousness induced by concussive head injury:
Nine male mice weighing 18 to 22 g were used for each dosage of the test compounds. An acrylate weight containing lead (20.5 g, 19 mm in both diameter and thickness) was dropped to the head of mice from a 18 cm height. Mice were induced loss of consciousness and they remained motionless for some period. The time from the shock up to the onset of spontaneous movement was recorded as the spontaneous movement time. Test compounds were administered intravenously 10 min. before adding concussive head injury and effects of test compounds were evaluated as ED50%, the dose required to shorten by 50% the spontaneous movement time of control group.

The test system of series [3] is male mice. Conditions: mouse, in vivo, iv.
In series [4] the test system is male mice. The series is described as follows: Acute toxicity (Experiment 3). The following applies: intravenous.

For `NC(=O)[C@@H]1CCCN1C(=O)[C@H](Cc1c[nH]cn1)NC(=O)[C@@H]1CC(=O)N1` [Example 1, N^α -[(S)-2-azetidinone-4-carbonyl]-L-histidyl-L-prolinamide], the “Reversal effect against pentobarbital-hypothermia ED1.5° C.” value (shortened to “Reversal effect”) in the series with male mice [1] was found to be 0.01 mg/kg. Further, the 50% effective dose (ED50) in the series on male mice [2] turned out to be 0.1 mg/kg. Besides, in the series on male mice [3], the “LD50 (i.v.)” value is given as “higher than 1493 mg/kg”.

Turning to `O=C1C[C@@H](C(=O)N[C@@H](Cc2c[nH]cn2)C(=O)N2CCC[C@H]2C(=O)NCCO)N1` [Example 4, N^α -[(S)-2-azetidinone-4-carbonyl]-L-histidyl-N-(2-hydroxyethyl)-L-prolinamide], the 50% effective dose (ED50) in the series with male mice [2] was 0.35 mg/kg.

As to `NC(=O)[C@@H]1CSCN1C(=O)[C@H](Cc1c[nH]cn1)NC(=O)[C@@H]1CC(=O)N1` [Example 6, 3-[N^α -[(S)-2-azetidinone-4-carbonyl]-L-histidyl]-L-thiazolidine-4-carboxamide], the “Reversal effect” value in the series on male mice [1] was determined as 0.05 mg/kg.

Regarding `Cn1cnc(CC(NC(=O)C2CC(=O)N2)C(=O)N2CCCC2C(N)=O)c1` [Example 19, N^α -[(s)-2-azetidinone-4-carbonyl]-N^.tau. -methyl-L-histidyl-L-prolinamide], the “Reversal effect” value in the series on male mice [1] is listed as 0.004 mg/kg.

For `NC(=O)[C@@H]1CCCN1C(=O)[C@H](Cc1cnc[nH]1)NC(=O)[C@@H]1CCC(=O)N1` [TRH, L-pyroglutamyl-L-histidyl-L-prolinamide, reference compound], the “Reversal effect” value in the series with male mice [1] was found to be 0.1 mg/kg. Further, the “LD50 (i.v.)” value with male mice [4] came out at 751 mg/kg. The “Onset time of spontaneous movement ED50%” value with male mice [2] is reported as 2.5 mg/kg.
